From patent US9132111B2, “Topical antimicrobial compositions” (priority 2011, dated 2015) come the findings set out here.

Common to all, as to format: cell-based
In assay [1] the test system is Staphylococcus aureus ATCC6538. Briefly: Bactericide effect of antimicrobial composition against Staphylococcus aureus. How it is done: 1) Testing strain: Staphylococcus aureus ATCC6538, 5-6th generations, provided by the reserve center of China microbial reservation committee.
The testing sample was diluted for 2, 4, 8, 16, 32, 64, 128 and […] folds using standard hard water, then reacted with ATCC6538 for 1 min, 5 min, 10 min.
(§1) 2. Testing Methods and Standards:
(§2) <<Technical Standard for Disinfection>> (2002 Edition)
(§3) GB15979-2002 <<Technical standard for testing disinfection product>> “Procedures for testing bactericide effect”

The next assay relates to Eschetichia coli 8099. The assay is described as follows: Bactericide effect of antimicrobial composition against Eschetichia coli. How it is done:
1) Testing strain: Eschetichia coli 8099, the 5-6 generations were used; provide by the “Reserve Center of Chinese Microbial Reservation Committee”.
The testing sample was diluted for 2, 4, 8, 16, 32, 64, 128 and 256 folds using standard hard water, then reacted with Eschetichia coli 8099 for 1 min, 5 min, 10 min.
as §1, §2, §3

Assay [2] has as its system Candida albicans ATCC 10231. The assay is described as follows: Bactericidal effect of antimicrobial composition against Candida albicans. How it is done: 1) Testing strain: Candida albicans ATCC 10231, the 5-6 generations; provide by the “Reserve Center of Chinese Microbial Reservation Committee”.
The testing sample was diluted for 2, 4, 8, 16, 32, 64, 128 and […] times using standard hard water, then reacted with ATCC 10231 for 1 min, 5 min, 10 min.
as §1, §2, §3
The bactericidal effect of antimicrobial composition against Candida albicans ATCC10231 at 20±1° C. temperature is shown in table 6.

For the substance “N,N-di-n-decyl-N,N-dimethyl-ammonium 5-oxopyrrolidine-2-carboxylate [DDAPC]”, the minimum inhibiting concentrations is on record as 0.0016% in assay [1] (reacted 1 min); 0.0004% in assay [1] (reacted 5 min); 0.0004% in assay [1] (reacted 10 min); 0.006% in the assay on Eschetichia coli 8099 (reacted 1 min); 0.003% in the assay with Eschetichia coli 8099 (reacted 5 min); 0.003% in the assay with Eschetichia coli 8099 (reacted 10 min). Besides, the minimum inhibiting concentrations is 0.0016% in assay [2] (reacted 1 min), 0.0008% in assay [2] (reacted 5 min) and 0.0004% in assay [2] (reacted 10 min).
